Data: patent publication US5223421A, “Identification of methionine Nα-acetyltransferase” (The General Hospital Corporation, priority 1990, dated 1993)

How the values were obtained:
[1] = tested on: N^α -acetyltransferase activity of crude yeast lysate, wild-type (AAA1) strain T3A; assay: N^α -acetylation of peptide substrates by crude yeast lysate, wild-type strain; format: biochemical, Saccharomyces cerevisiae; conditions: for Activity (%) AAA1: crude lysate of wild-type strain T3A, mean ± SD (N=3-5), normalized to human adrenocorticotropic hormone (1-24), 50 μM peptide
Experimental: (§1) N^α -acetyltransferase activity was determined as previously described [Lee et al., J. Biol. Chem. 263:14948-14955 (1988)]. Aliquots of the lysate or chromatographic fractions were added to 1.5 ml Eppendorf tubes containing a reaction mixture of 50 mM HEPES, pH 7.4, 150 mM KCl, 1 mM DTT, 25 μM [^3 H] acetyl coenzyme A (0.5 μCi) and 50 μM synthetic peptide with an adjusted final volume of 100 μl. The assay mixture was incubated at 30° C. for 30 min. The reaction was stopped by adding 17 μl of 0.5M acetic acid and chilled in an ice bath. The reaction samples were filtered through SP membrane discs (Cuno) (previously pre-swollen in 0.5M acetic acid), and then washed three times with 1 ml of 0.5M acetic acid on a Millipore 1225 sampling manifold. The partially dried membranes were placed in scintillation cocktail and counted with a Beckman LS 3801 scintillation counter. One unit of activity was defined as the amount of enzyme able to transfer 1 pmol of [^3 H] acetyl group from [^3 H] acetyl coenzyme A to synthetic peptide per min under standard enzyme assay conditions defined above.
(§2) The wild-type (containing endogenous N^α -acetyltransferase activity) and the aaa1 (lacking endogenous N^α -acetyltransferase activity) strains were T3A and T3A-a, respectively (Lee, F-J. S., et al., J. Bacteriol. 171, 5795-5802 (1989)). Human adrenocorticotropic hormone (1-24), yeast alcohol dehydrogenase (1-24), and human superoxide dismutase (1-24) have either serine or alanine as amino-terminal residues, while proteinase A inhibitor 3 has a methionine residue. The synthesis of the peptide substrates, the preparation of the crude yeast homogenate, and the assay of enzyme activity were as previously described by Lee et al. (Lee, F-J. S., et al., J. Biol. Chem. 263:14948 (1988); Kamitani, K., et al., J. Biol. Chem. 264:13188 (1989)). The numbers in parentheses refer to the residue numbers, and the letters in parentheses specify the amino acid sequence. Abbreviations: A (alanine), C (cysteine), D (aspartic acid), E (glutamic acid), F (phenylalanine), G (glycine), H (histidine), I (isoleucine), K (lysine), L (leucine), M (methionine), N (asparagine), P (proline), Q (glutamine), R (arginine), S (serine), T (threonine), V (valine), W (tryptophan). Data are reported as mean activity±SD (N=3-5) and are normalized to the activity of the homogenate towards human adrenocorticotropic hormone (1-24).

[2] = molecular target: T1, N^α -acetyltransferase activity of crude yeast lysate, aaa1 mutant strain T3A-a (Saccharomyces cerevisiae, UniProt Q06504); assay: N^α -acetylation of peptide substrates by crude yeast lysate, aaa1 mutant strain; format: biochemical; conditions: for Activity (%) aaa1: crude lysate of aaa1 mutant strain T3A-a, mean ± SD (N=3-5), normalized to human adrenocorticotropic hormone (1-24), 50 μM peptide
T1 construct: a crude yeast homogenate from the aaa1 mutant strain; endogenous in cells; host or cells: Saccharomyces cerevisiae strain T3A-a (aaa1), crude lysate
T1 sequence (Q06504 1-195): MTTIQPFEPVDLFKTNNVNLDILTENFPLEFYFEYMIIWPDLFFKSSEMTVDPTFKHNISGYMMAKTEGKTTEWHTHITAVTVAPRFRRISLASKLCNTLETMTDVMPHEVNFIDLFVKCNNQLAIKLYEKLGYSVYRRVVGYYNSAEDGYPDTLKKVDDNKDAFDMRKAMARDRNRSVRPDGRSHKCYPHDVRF
T1 sequence (Q12387 1-796 partner): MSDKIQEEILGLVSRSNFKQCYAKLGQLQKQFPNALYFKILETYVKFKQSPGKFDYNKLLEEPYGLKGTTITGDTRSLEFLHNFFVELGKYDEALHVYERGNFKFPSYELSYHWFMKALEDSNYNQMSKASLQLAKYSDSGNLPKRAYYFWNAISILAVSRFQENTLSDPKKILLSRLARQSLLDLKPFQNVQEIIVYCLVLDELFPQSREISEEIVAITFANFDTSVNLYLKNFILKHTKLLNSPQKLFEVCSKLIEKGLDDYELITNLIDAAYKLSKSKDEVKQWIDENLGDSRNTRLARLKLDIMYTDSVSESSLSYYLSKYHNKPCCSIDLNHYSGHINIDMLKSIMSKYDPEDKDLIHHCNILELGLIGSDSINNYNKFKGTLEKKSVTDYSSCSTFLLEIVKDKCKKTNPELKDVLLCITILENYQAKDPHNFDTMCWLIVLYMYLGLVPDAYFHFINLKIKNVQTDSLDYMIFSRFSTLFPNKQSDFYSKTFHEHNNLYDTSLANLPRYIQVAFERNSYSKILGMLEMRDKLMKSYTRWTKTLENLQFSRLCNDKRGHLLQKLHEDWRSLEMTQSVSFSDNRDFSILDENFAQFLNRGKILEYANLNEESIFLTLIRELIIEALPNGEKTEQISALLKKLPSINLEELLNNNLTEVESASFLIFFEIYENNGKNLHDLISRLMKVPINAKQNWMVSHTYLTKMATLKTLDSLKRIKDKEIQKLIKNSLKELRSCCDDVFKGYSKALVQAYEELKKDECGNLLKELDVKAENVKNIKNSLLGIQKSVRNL
Experimental: as §1, §2

Row | Substance | Activity (%) AAA1 [1] [%] | Activity (%) aaa1 [2] [%] | acetylation of the peptide substrate by wild-type strain ([1]; crude lysate, wild-type strain) | acetylation of the peptide substrate by aaa1 mutant ([2]; crude lysate, aaa1 mutant)
1 | SIPETQKGVIFYESHGKLEYKDIP (SIPETQKGVIFYESHGKLEYKDIP) [Alcohol dehydrogenase (1-24) (Yeast)] | 102 ± 5 | 0 | – | –
2 | MNTDQQKVSEIFQSSKEKLQGDAK (MNTDQQKVSEIFQSSKEKLQGDAK) [Proteinase A Inhibitor 3 (1-24) (Yeast)] | 75 ± 5 | 80 ± 5 | capable of acetylating | capable of acetylating
3 | SYSMEHFRWGKPVGKKRRPVKVYP | 100 ± 5 | 0 | – | –
